# Results taken from patent publication US11124785B2, “Rothia subtilisins, S8A family proteases, as therapeutic enzymes for application in gluten intolerance disorders” (TRUSTEES OF BOSTON UNIVERSITY, priority 2016, dated 2021).
# Test system: R. mucilaginosa enzyme preparation (Rmep)
# Assay: Inhibitor profile of Rmep (Suc-AAPF-pNA hydrolysis)
# Type: biochemical, Rothia mucilaginosa
# Conditions: for inhibition of Rmep activity: AEBSF 10 mM, aprotinin 0.08 mM, E-64 0.1 mM, EDTA 1.5 mM, PMSF 1 mM, Rmep 5.7 μg/ml, Suc-AAPF-pNA
# Method: Inhibitors AEBSF, Aprotinin, E-64, EDTA, PMSF and Eglin C were tested at final concentrations of 10 mM, 0.08 mM, 0.1 mM, 1.5 mM, 1 mM, and 0.06 μM, respectively. Rmep was added at a final concentration of 5.7 μg/ml. The percent inhibition was determined from the ratio of the initial velocities of hydrolysis of Suc-AAPF-pNA (SEQ ID NO: 4) in the absence and presence of inhibitor.
# Hydrolysis of paranitroanilide-derivatized substrates—Paranitroanilide (pNA)-derivatized tripeptide substrates were chemically synthesized at >90% purity (21st Century Biochemicals, Marlborough, Mass.). The substrates obtained were Z-YPQ-pNA, Z-QQP-pNA, Z-LPY-pNA, Z-PFP-pNA, Z-PPF-pNA, where Z=benzyloxycarbonyl, Y=tyrosine, P=proline, Q=glutamine, L=leucine, and F=phenylalanine Suc-AAPF-pNA (SEQ ID NO: 4) was obtained from Sigma, where Suc=N-succinyl and A=alanine. The peptides were dissolved in 75-100% DMSO at 10 mM, and were used at a final concentration of 200 μM in 50 mM TrisHCl pH 8.0. Purified Rothia enzyme or subtilisin A from Bacillus licheniformis (Sigma) were tested at final concentrations of 1 μg/ml. Some experiments were conducted in the presence of inhibitors 4-(2-Aminoethyl) benzenesulfonyl fluoride (AEBSF), Aprotinin, E-64, EDTA, phenylmethanesulfonyl fluoride (PMSF) and Eglin C, which were tested at final concentrations of 10 mM, 0.08 mM, 0.1 mM, 1.5 mM, 1 mM, and 0.06-1.2 μM, respectively. Enzymes were preincubated with the inhibitors for 20 min before adding Suc-AAPF-pNA (SEQ ID NO: 4). Substrate hydrolysis was monitored for 10 h at 405 nm using a Genios microtiter plate reader (Tecan, Männedorf, Switzerland) in the kinetic mode at 37° C.
Compound,inhibition of Rmep activity,"inhibition of the Rothia subtilisin by PMSF (1 mM PMSF, stated as embodiment)"
"NCCc1ccc(S(=O)(=O)F)cc1 [AEBSF, 4-(2-Aminoethyl) benzenesulfonyl fluoride]",inhibited effectively,–
CC(C)C[C@H](NC(=O)[C@H]1O[C@@H]1C(=O)O)C(=O)NCCCCN=C(N)N [E64],not,–
"O=C(O)CN(CCN(CC(=O)O)CC(=O)O)CC(=O)O [EDTA, ethylenediaminetetraacetic acid]",not,–
"O=S(=O)(F)Cc1ccccc1 [PMSF, phenylmethanesulfonyl fluoride]",inhibited effectively,100%
aprotinin,partial inhibition,–
